Measurements taken from US20030166530A1, “Conjugate heat shock protein-binding peptides” (priority 1997, published 2003).
Ends that are not written are not given here.

Experiments:
EG7 cells = assay: EG7 tumor cell challenge after immunization; type: in vivo, C57BL/6 mice; conditions: for tumor-free animals: eight mice per group
Procedure: C57BL/6 mice, 8-10 weeks old, were immunized intradermally with one of the following (eight mice in each group): (a)5 μl TiterMax and 5 μg OVA peptide; (b) 15 μg hsp70 and 5 μg OVA peptide; (c) 5 μl TiterMax and […] (OVA-BiP); (d) 15 μg hsp70 and 12 μg OVA-BiP; (e) control (four animals only in this group); (f) 5 μg OVA peptide; or (g) 12 μg OVA-BiP. The mice then were injected with 4×10^6 EG7 cells. Tumor size was evaluated over time by measuring two diameters, the greatest diameter and the diameter perpendicular to the greatest diameter, and then calculating the average diameter. The results are shown in FIG. 8A-G (corresponding to groups a-g, as set forth above).

[1] = 17- versus 19-substituted herbimycin derivative; cited from earlier work
[2] = test system: OVA-primed EL-4 target cells; assay: 51Cr release assay with effector cells from immunized mice; type: in vivo, C57BL/6 mice; conditions: mice immunized once or twice
Procedure: Preparation of hsp70 and/or peptide for use in immunization. Approximately 15 μg hsp70 and 12 μg OVA-BiP were mixed, on ice, to a final volume of 10 μL in Buffer Y (to produce a final concentration of 21.5 μM hsp70, 0.5 mM OVA-BiP, 20 mM HEPES pH 7.0, 150 mM KCl, 10 mM (NH4)2SO4, 2 mM MgCl2 and 2 mM MgADP, pH 7.0). The mixture was incubated for 30 minutes at 37° C. and was used for in vivo immunizations. Similar incubations were carried out with (i) 5 μl TiterMax adjuvant (Vaxcell, Norcross, Ga.) and 12 μg OVA-BiP (ii) 5 μl TiterMax and 5 μg OVA peptide or (iii) 12 μg OVA-BiP alone.
Preparation of cells for chromium release assay. […]
Chromium release assay. […] Supernatants were harvested and radioactivitiy released by cytotoxic activity was measured in a gamma counter. The percent specific lysis was calculated as 100×[(cpm release by CTL-cpm spontaneously released)/(cpm maximal release-cpm spontaneously released)]. Maximal release was determined by adding 1% NP-40 to lyse all cells. Spontaneous release of all target in the absence of effector cells (measured in a culture of target cells (in the absence of effector cells) maintained in parallel for the duration of the assay) was less than 20% of the maximal release.

[3] = target: T1, gp96 in the presence of herbimycin A (Mus musculus, UniProt P08113); assay: Phage display affinity panning on gp96 in the presence of herbimycin A; type: binding; conditions: 20 mM HEPES pH 7.5, 100 mM KCl, 25 mM CaCl2, 5 mM MgAcetate, TWEEN-20; herbimycin A present
T1 construct: mouse cDNA encoding mature gp96 (i.e., wherein the endoplasmic reticulum signal peptide has been removed); made in house; host or cells: Escherichia coli BL21 (pET 11a)
T1 sequence (P08113 22-802): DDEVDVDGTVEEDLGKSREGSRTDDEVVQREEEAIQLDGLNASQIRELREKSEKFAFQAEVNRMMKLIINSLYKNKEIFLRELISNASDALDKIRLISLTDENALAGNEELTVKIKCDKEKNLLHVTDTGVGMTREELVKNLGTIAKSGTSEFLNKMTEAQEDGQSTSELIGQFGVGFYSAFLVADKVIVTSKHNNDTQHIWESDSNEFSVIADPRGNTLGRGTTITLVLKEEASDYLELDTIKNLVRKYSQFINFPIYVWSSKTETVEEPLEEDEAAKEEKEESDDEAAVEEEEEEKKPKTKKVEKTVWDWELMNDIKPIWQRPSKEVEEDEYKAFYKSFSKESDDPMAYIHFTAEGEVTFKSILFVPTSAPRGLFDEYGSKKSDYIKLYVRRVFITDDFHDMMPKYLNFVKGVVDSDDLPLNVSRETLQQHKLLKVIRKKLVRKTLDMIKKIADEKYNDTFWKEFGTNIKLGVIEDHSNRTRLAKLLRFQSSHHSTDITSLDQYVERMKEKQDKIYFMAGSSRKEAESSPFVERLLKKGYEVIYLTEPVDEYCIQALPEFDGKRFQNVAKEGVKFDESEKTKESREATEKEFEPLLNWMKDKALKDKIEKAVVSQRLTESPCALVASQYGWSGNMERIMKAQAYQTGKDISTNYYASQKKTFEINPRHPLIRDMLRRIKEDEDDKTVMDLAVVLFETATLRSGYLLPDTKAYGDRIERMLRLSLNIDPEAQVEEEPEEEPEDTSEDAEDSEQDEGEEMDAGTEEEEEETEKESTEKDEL
Procedure: Preparation of a gp96 expression vector. The mouse cDNA encoding mature gp96 (i.e., wherein the endoplasmic reticulum signal peptide has been removed) was incorporated into the pET 11a expression vector (Novagen) as follows. Gp96 cDNA insert was prepared by polymerase chain reaction (PCR) of a pRc/CMV clone containing the cDNA using the following oligonucleotide primers: […]
Expression of gp96. pET11 gp96 was transformed into BL21 Escherichia coli cells, and plated on LB plates containing ampicillin (50μg/ml). One of the resulting colonies was used to inoculate a 20 ml overnight culture of 2×TY medium containing ampicillin (150 μg/ml). The following day, the resulting culture was spun down and the harvested bacteria were resuspended in 1 ml of fresh medium. Two one liter cultures were then each inoculated with 0.5 ml of the harvested cells and allowed to grow at 37° C. until the optical density, measured at 600 nm, was 0.5. Then, IPTG was added to a concentration of 1 mM and the cells were cultured for another 3 hours before being harvested by centrifugation. The resulting cell pellet was resuspended in 20 ml of 50 mM HEPES pH 7.5, 50 mM KCl, 5 mM MgAcetate, 20% sucrose and 1 mM PMSF. Cell extracts were prepared by pressure shearing in a French Press. The lysates were then spun at 100,000×g for 1.5 hours and the supernatant, which constituted crude gp96 extract, was collected. […]

[4] = peptide alone (without TiterMax or hsp70)

With “Ser Ile Ile Asn Phe Glu Lys Leu (SIINFEKL; printed: Ser Ile Ile Asn Phe Glu Lys Leu) [OVA-peptide, reference compound]” the tumor-free animals (EG7 cells; [4]) was “no animals were tumor-free”.

For 17-allylamino herbimycin, the relative activity [1] is given as “more active than 19-allylamino herbimycin”.

In the case of SIINFEKLGSGHWDFAWPW [OVA-BiP], the “tumor diameter and detectable tumor formation” value (EG7 cells; peptide administered with TiterMax adjuvant) is reported as “superior to OVA peptide (FIG. 8A) in reducing tumor diameter and in preventing detectable tumor formation altogether”, the average tumor diameters (EG7 cells; peptide alone (without TiterMax or hsp70), compared with OVA-peptide alone) is reported as “average tumor diameters were smaller” and the tumor-free animals (EG7 cells; [4]) is reported as 2/8. For the same substance, the “OVA-specific cytotoxic immune response (killing of OVA-primed EL-4 target cells)” value [2] was “significant anti-OVA immune response”.

In the case of “Phe-His-Trp-Trp-Trp (FHWWW; printed: Phe-His-Trp-Trp-Trp) [SEQ ID NO:320]”, the “binding of phage-expressed peptides to gp96” value [3] is reported as “appeared to be favored”.
